Test results taken from patent US20170008928A1, “NOVEL PEPTIDES AND PEPTIDE DERIVATIVES AND USES THEREOF” (Novo Nordisk A/S, priority 2015, published 2017).
Where two headings read alike, the source gives them in different places. Starred links: 1 amine or outer side, 2 acyl side, 3 side chain; linkers in the order of their positions; H or OH if unused. Non-standard residues stand in square brackets, D forms with d. Residues, ends and D or L forms follow the SMILES beside them. *: point of attachment. Phe(4-CH2SO3H) = N[C@@H](Cc1ccc(CS(=O)(=O)O)cc1)C(=O)O; sY = N[C@@H](Cc1ccc(OS(=O)(=O)O)cc1)C(=O)O; C18 diacid = O=C(O)CCCCCCCCCCCCCCCCC(=O)*; C16 diacid = O=C(O)CCCCCCCCCCCCCCC(=O)*; γGlu = O=C(O)[C@H](CCC(=O)[*:2])N[*:1]; βAsp = O=C(O)[C@H](CC(=O)[*:2])N[*:1]; NMeF = CN[C@@H](Cc1ccccc1)C(=O)O; dNMeD = CN[C@H](CC(=O)O)C(=O)O; Nle = CCCC[C@H](N)C(=O)O; AEEA = NCCOCCOCC(=O)O

Experiments:
[1] = biological target: T1, human cholecystokinin-1 receptor (CCK-1R) (Homo sapiens, UniProt P32238); experiment: In vitro receptor binding to CCK-1R, SPA displacement of [125I]-CCK-8s from plasma membranes; conditions: for CCK-1R binding selectivity (IC50 (CCK-2R)/IC50 (CCK-1R)): ratio of binding IC50 values, >1 = preference for CCK-1R
T1 construct: host or cells: 1321-N1 cells
T1 sequence (P32238 1-428): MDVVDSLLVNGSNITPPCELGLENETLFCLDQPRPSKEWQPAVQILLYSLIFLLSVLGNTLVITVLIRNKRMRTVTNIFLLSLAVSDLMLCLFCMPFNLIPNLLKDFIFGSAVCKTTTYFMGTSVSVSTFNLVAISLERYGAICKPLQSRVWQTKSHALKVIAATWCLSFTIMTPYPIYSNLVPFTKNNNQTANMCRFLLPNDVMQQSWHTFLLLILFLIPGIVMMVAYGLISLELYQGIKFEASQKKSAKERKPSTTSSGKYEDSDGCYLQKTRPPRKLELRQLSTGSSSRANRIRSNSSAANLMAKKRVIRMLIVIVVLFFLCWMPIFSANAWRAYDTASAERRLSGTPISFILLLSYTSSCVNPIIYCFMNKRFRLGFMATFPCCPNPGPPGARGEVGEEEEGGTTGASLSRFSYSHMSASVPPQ
Method: The in vitro binding affinity is a measure of the strength of attraction between a receptor and its ligand.
Displacement of radio ligand was measured as reduction in light emission from SPA beads.
The cells used in these assays were 1321-N1 cells stably expressing the CCK-1R or the CCK-2R (Perkin Elmer product numbers ES-530-A and ES-531-A, respectively see www.perkinelmer.com/Catalog/Product/ID/ES-530-A or -ES-531-A, respectively).
The cells were cultured in an incubator (95% RH (relative humidity), 5% (of standard atmospheric pressure) CO2, 37° C.) in cell culture medium (DMEM (Lonza catalogue BE-12-604F/U1), with 10% (v/v) Foetal Calf Serum (FCS, Gibco catalogue 16140-071), 1% (w/w) Sodium pyruvate (Gibco catalogue 11360-039), 500 μg/ml Geneticin® (G418) (Gibco catalogue 10131-027), 25 μg/ml Zeocin™ (Invitrogen catalogue R250-05), 1% (w/w) Pen/Strep (Gibco catalogue 15140-122)).
Plasma membranes were prepared by Evotec AG Hamburg by use of the ParrBomb (#4635, Parr Instrument Company). Cells were lysed with a lysis buffer (50 mM Tris, 2.5 mM EDTA, pH7) with added protease inhibitors (Complete Proteaseinhibitors EDTA-free (#05056489001, Roche), 1 tablet per 50 mL lysis buffer). The membrane fraction was separated by centrifugation. First, the cell lysate was centrifuged at 1000×g for 10 minutes at 4° C. The pellet was discarded and the supernatant was then centrifuged at 100.000×g for 30 minutes at 4° C. The supernatant was discarded and the pellet was re-suspended in 1 ml/5×10^8 cells ice cold membrane buffer (50 mM Tris, 320 mM Sucrose and Complete Proteaseinhibitors EDTA-free (#05056489001, Roche); pH7.4) and homogenised with dounce homogeniser. The protein concentration was determined using the Pierce™ BCA Protein Assay Kit according to kit manual, and the membrane preparation was adjust to the desired protein concentration with membrane buffer and aliquoted into pre-cooled tubes, snap-frozen in liquid nitrogen, and stored at −80° C.
CCK receptor binding assays were performed in 96-well Optiplates (Cat #6005290, PerkinElmer, Waltham, Mass., USA) in a total volume of 200 μl per well. CCK derivatives in 80% DMSO stock solutions of 800 μM were serially diluted […] in assay buffer (50 mM Tris/HCl, 4.5 mM MgCl2, […], 0.02% Tween 20, 0.25% ovalbumin, 0.1% pluronic F-68, pH 7.4) to final assay concentrations ranging from 10^−5 M (ten μM) to 10^−12 M (one pM).
Fifty μl of reference or test compounds were added to the Optiplates (using technical duplicates, i.e. two wells of each sample, one data point being the average of two wells), followed by addition of 150 μl of the mixture of SPA bead, radio ligand, and plasma membrane. The plates were sealed and incubated in the dark at +22° C. for 2 hours on a IKA MTS plate shaker (IKA-Werke D-79219 Staufen) set at 300 rpm and thereafter centrifuged at 1500 rpm for 10 minutes in a Heraeus Multifuge 3s centrifuge. SPA bead light emission was measured in a TopCount NXT (PerkinElmer) for 2 min/well after a delay of 60 min.
As a measure of compound affinity, calculations were performed in order to determine the half maximal inhibitory concentration (the IC50 value).
The data from the TopCounter were given as counts per minute (CPM). The CPM was plotted as a function of the concentration of compound. Dose-response curves were obtained, and IC50 values were calculated, by a nonlinear three-parameter logistic equation (log(agonist) vs response) with hillslope=−1, and shared top and bottom using the software programme GraphPad Prism v 6.0 (Graph Pad software, La Jolla, Calif., USA). The highest dose tested was 10^−5 M (1×10^7 pM).
The preference of a specific compound for the CCK-1 receptor, or the CCK-1R selectivity, may be defined as IC50 (CCK-2R)/IC50 (CCK-1R).
A minimum of three biological replicates was measured for each test compound on separate assay plates.

[2] = biological target: T2, human cholecystokinin-2 receptor (CCK-2R) (Homo sapiens, UniProt P32239); experiment: In vitro potency on CCK-2R, whole cell functional assay (IP1 accumulation, IP-One HTRF); assay type: cell-based
T2 construct: host or cells: 1321-N1 cells (plasma membranes prepared by Evotec AG Hamburg)
T2 sequence (P32239 1-447): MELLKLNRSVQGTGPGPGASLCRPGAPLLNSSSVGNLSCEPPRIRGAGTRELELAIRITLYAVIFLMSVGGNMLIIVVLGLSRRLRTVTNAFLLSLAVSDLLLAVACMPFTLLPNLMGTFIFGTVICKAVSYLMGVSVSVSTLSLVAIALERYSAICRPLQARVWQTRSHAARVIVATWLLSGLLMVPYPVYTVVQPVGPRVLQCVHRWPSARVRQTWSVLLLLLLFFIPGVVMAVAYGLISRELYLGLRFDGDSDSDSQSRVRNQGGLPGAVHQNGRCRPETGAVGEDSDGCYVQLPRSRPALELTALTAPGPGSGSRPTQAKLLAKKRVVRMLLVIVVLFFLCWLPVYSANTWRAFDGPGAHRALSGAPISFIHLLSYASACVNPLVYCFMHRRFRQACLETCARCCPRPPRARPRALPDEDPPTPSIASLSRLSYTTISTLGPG

[3] = biological target: T1, human cholecystokinin-1 receptor (CCK-1R); experiment: In vitro potency on CCK-1R, whole cell functional assay (IP1 accumulation, IP-One HTRF); assay type: cell-based
[4] = biological target: T2, human cholecystokinin-2 receptor (CCK-2R); experiment: In vitro receptor binding to CCK-2R, SPA displacement of [125I]-CCK-8s from plasma membranes
[5] = ratio of functional EC50 values, >1 = preference for CCK-1R
[6] = 1321-N1 cells stably expressing CCK-1R, IP1 accumulation, average of min. three replicates, read-out: EC50 (CCK-1R)

CCK-1R binding selectivity (IC50 (CCK-2R)/IC50 (CCK-1R)) [1] | CCK-1R selectivity (EC50 (CCK-2R)/EC50 (CCK-1R)) [3, 5] | EC50 [3, 6] | IC50 ([1]; displacement of [125I]-CCK-8s, plasma membranes of 1321-N1 cells expressing CCK-1R, read-out: IC50 (CCK-1R)) | EC50 ([2]; 1321-N1 cells stably expressing CCK-2R, IP1 accumulation, highest dose tested 1×10^6 pM, read-out: EC50 (CCK-2R)) | SMILES | IC50 [1] | EC50 [2] | EC50 [3] | IC50 [4] | CCK-1R selectivity (EC50 (CCK-2R)/EC50 (CCK-1R)) [3]
87000 | 960 | – | – | – | CCCC[C@H](NC(=O)[C@H](Cc1c[nH]c2ccccc12)NC(=O)CNC(=O)[C@H](Cc1ccccc1)NC(=O)[C@H](Cc1ccc(OS(=O)(=O)O)cc1)NC(=O)[C@H](CC(=O)O)NC(=O)COCCOCCNC(=O)COCCOCCNC(=O)CC[C@H](NC(=O)CCCCCCCCCCCCCCCCC(=O)O)C(=O)O)C(=O)N(C)[C@H](CC(=O)O)C(=O)N(C)[C@@H](Cc1ccccc1)C(N)=O [Example 44, 2-[2-[2-[[2-[2-[2-[[(4S)-4-Carboxy-4-(17-carboxyheptadecanoylamino)butanoyl]amino]ethoxy]ethoxy]acetyl]amino]ethoxy]ethoxy]acetyl-Asp-sTyr-Phe-Gly-Trp-Nle-DMeAsp-MePhe-amide] ({C18 diacid-γGlu-AEEA-AEEA}-D[sY]FGW[Nle][dNMeD][NMeF]-NH2) | – | – | – | – | –
82000 | 3000 | 0.31 nM | – | – | CCCC[C@H](NC(=O)[C@H](Cc1c[nH]c2ccccc12)NC(=O)CNC(=O)[C@H](CO)NC(=O)[C@H](Cc1ccc(OS(=O)(=O)O)cc1)NC(=O)[C@H](CC(=O)O)NC(=O)COCCOCCNC(=O)COCCOCCNC(=O)CC[C@H](NC(=O)CCCCCCCCCCCCCCCCC(=O)O)C(=O)O)C(=O)N(C)[C@H](CC(=O)O)C(=O)N(C)[C@@H](Cc1ccccc1)C(N)=O [Example 45, 2-[2-[2-[[2-[2-[2-[[(4S)-4-Carboxy-4-(17-carboxyheptadecanoylamino)butanoyl]amino]ethoxy]ethoxy]acetyl]amino]ethoxy]ethoxy]acetyl-Asp-sTyr-Ser-Gly-Trp-Nle-DMeAsp-MePhe-amide] ({C18 diacid-γGlu-AEEA-AEEA}-D[sY]SGW[Nle][dNMeD][NMeF]-NH2) | – | – | – | – | –
4100 | 440 | 0.22 nM | – | – | CCCC[C@H](NC(=O)[C@H](Cc1c[nH]c2ccccc12)NC(=O)CNC(=O)[C@H](C)NC(=O)[C@H](Cc1ccc(OS(=O)(=O)O)cc1)NC(=O)[C@H](CC(=O)O)NC(=O)COCCOCCNC(=O)COCCOCCNC(=O)CC[C@H](NC(=O)CCCCCCCCCCCCCCCCC(=O)O)C(=O)O)C(=O)N(C)[C@H](CC(=O)O)C(=O)N(C)[C@@H](Cc1ccccc1)C(N)=O [Example 46, 2-[2-[2-[[2-[2-[2-[[(4S)-4-Carboxy-4-(17-carboxyheptadecanoylamino)butanoyl]amino]ethoxy]ethoxy]acetyl]amino]ethoxy]ethoxy]acetyl-Asp-sTyr-Ala-Gly-Trp-Nle-DMeAsp-MePhe-amide] ({C18 diacid-γGlu-AEEA-AEEA}-D[sY]AGW[Nle][dNMeD][NMeF]-NH2) | – | – | – | – | –

Second part, the molecule before the results:

SMILES | CCK-1R binding selectivity (IC50 (CCK-2R)/IC50 (CCK-1R)) [1] | CCK-1R selectivity (EC50 (CCK-2R)/EC50 (CCK-1R)) [3, 5] | EC50 [3, 6] | IC50 ([1]; displacement of [125I]-CCK-8s, plasma membranes of 1321-N1 cells expressing CCK-1R, read-out: IC50 (CCK-1R)) | EC50 ([2]; 1321-N1 cells stably expressing CCK-2R, IP1 accumulation, highest dose tested 1×10^6 pM, read-out: EC50 (CCK-2R)) | IC50 [1] | EC50 [2] | EC50 [3] | IC50 [4] | CCK-1R selectivity (EC50 (CCK-2R)/EC50 (CCK-1R)) [3]
CCCC[C@H](NC(=O)[C@H](Cc1c[nH]c2ccccc12)NC(=O)CNC(=O)[C@H](CC(C)C)NC(=O)[C@H](Cc1ccc(CS(=O)(=O)O)cc1)NC(=O)[C@H](CC(=O)O)NC(=O)COCCOCCNC(=O)COCCOCCNC(=O)CC[C@H](NC(=O)CCCCCCCCCCCCCCC(=O)O)C(=O)O)C(=O)N(C)[C@H](CC(=O)O)C(=O)N(C)[C@@H](Cc1ccccc1)C(N)=O [Example 6, 2-[2-[2-[[2-[2-[2-[[(4S)-4-Carboxy-4-(15-carboxypentadecanoylamino)butanoyl]amino]ethoxy]ethoxy]acetyl]amino]ethoxy]ethoxy]acetyl-Asp-Phe(4-sulfomethyl)-Leu-Gly-Trp-Nle-DMeAsp-MePhe-amide] ({C16 diacid-γGlu-AEEA-AEEA}-D[Phe(4-CH2SO3H)]LGW[Nle][dNMeD][NMeF]-NH2) | – | – | – | – | – | 0.2 nM | > 1000 nM | 0.2 nM | > 10000 nM | –
CC(C)C[C@H](NC(=O)[C@H](Cc1ccc(OS(=O)(=O)O)cc1)NC(=O)[C@H](CC(=O)O)NC(=O)COCCOCCNC(=O)COCCOCCNC(=O)CC[C@H](NC(=O)CCCCCCCCCCCCCCCCC(=O)O)C(=O)O)C(=O)NCC(=O)N[C@@H](Cc1c[nH]c2ccccc12)C(=O)N[C@H](C(=O)N(C)[C@H](CC(=O)O)C(=O)N(C)[C@@H](Cc1ccccc1)C(N)=O)C(C)C [Example 14, 2-[2-[2-[[2-[2-[2-[[(4S)-4-Carboxy-4-(17-carboxyheptadecanoylamino)butanoyl]amino]ethoxy]ethoxy]acetyl]amino]ethoxy]ethoxy]acetyl-Asp-sTyr-Leu-Gly-Trp-Val-DMeAsp-MePhe-amide] ({C18 diacid-γGlu-AEEA-AEEA}-D[sY]LGWV[dNMeD][NMeF]-NH2) | 21000 | – | – | – | – | 0.31 nM | 730 nM | 0.14 nM | 6400 nM | 5100
CCCC[C@H](NC(=O)[C@H](Cc1ccc(CS(=O)(=O)O)cc1)NC(=O)C[C@H](N)C(=O)O)C(=O)NCC(=O)N[C@@H](Cc1c[nH]c2ccccc12)C(=O)N[C@@H](CCCC)C(=O)N(C)[C@H](CC(=O)O)C(=O)N(C)[C@@H](Cc1ccccc1)C(N)=O [Example 75, bAsp-Phe(4-sulfomethyl)-Nle-Gly-Trp-Nle-DMeAsp-MePhe-amide] (βAsp-[Phe(4-CH2SO3H)][Nle]GW[Nle][dNMeD][NMeF]-NH2) | 59000 | – | 0.19 nM | 0.049 nM | > 1000 nM | – | – | – | – | –
